Reference: paper PMC3942486, “The Ansamycin Antibiotic, Rifamycin SV, Inhibits BCL6 Transcriptional Repression and Forms a Complex with the BCL6-BTB/POZ Domain” (PLoS ONE, 2014)

Key:
Assay type in all cases: binding
BCL6-POZ domain [1] = target: T1, BCL6-POZ domain (Homo sapiens, UniProt P41182, C8Q/C67R/C84N); assay: 1H-15N TROSY-HSQC NMR chemical shift perturbation (weakest of the series)
T1 construct: POZ domain (residues 7 to 128)

BCL6-POZ domain [2] = target: T2, BCL6-POZ domain (Homo sapiens, UniProt P41182, C67R/C84N/C8Q); assay: X-ray crystal structure ([…] Å); 1H-15N TROSY-HSQC NMR titration
T2 construct: POZ domain (residues 7 to 128)

BCL6-POZ domain [3] = target: T1, BCL6-POZ domain; assay: 1H-15N TROSY-HSQC NMR chemical shift perturbation
BCL6-POZ domain [4] = target: T1, BCL6-POZ domain; assay: 1H-15N TROSY-HSQC NMR chemical shift perturbation; also relieves BCL6 repression in HEK293T luciferase reporter assay

## CO[C@H]1/C=C/O[C@@]2(C)Oc3c(C)c(O)c4c(O)c(c5c(nc6cc(C)ccn65)c4c3C2=O)NC(=O)/C(C)=C\C=C\[C@H](C)[C@H](O)[C@@H](C)[C@@H](O)[C@@H](C)[C@H](OC(C)=O)[C@@H]1C [rifaximin]
BCL6-POZ domain [1]
  1H-15N TROSY-HSQC NMR chemical shift perturbation (weakest of the series): order of binding from weakest to strongest was: rifaximin, rifapentine, 3-formyl rifamycin, rifampicin, rifamycin SV and rifabutin

## CO[C@H]1/C=C/O[C@@]2(C)Oc3c(C)c(O)c4c(c3C2=O)C2=NC3(CCN(CC(C)C)CC3)NC2=C(NC(=O)/C(C)=C\C=C\[C@H](C)[C@H](O)[C@@H](C)[C@@H](O)[C@@H](C)[C@H](OC(C)=O)[C@@H]1C)C4=O [rifabutin]
BCL6-POZ domain [2]
  Kd: ~1000 µM

## CO[C@H]1/C=C/O[C@@]2(C)Oc3c(C)c(O)c4c(O)c(c(/C=N/N5CCN(C)CC5)c(O)c4c3C2=O)NC(=O)/C(C)=C\C=C\[C@H](C)[C@H](O)[C@@H](C)[C@@H](O)[C@@H](C)[C@H](OC(C)=O)[C@@H]1C [rifampicin]
BCL6-POZ domain [3]
  1H-15N TROSY-HSQC NMR chemical shift perturbation: These derivatives all caused spectral changes of varying magnitude with the greatest shifts caused by rifabutin

## CO[C@H]1/C=C/O[C@@]2(C)Oc3c(C)c(O)c4c(O)c(cc(O)c4c3C2=O)NC(=O)/C(C)=C\C=C\[C@H](C)[C@H](O)[C@@H](C)[C@@H](O)[C@@H](C)[C@H](OC(C)=O)[C@@H]1C [rifamycin SV]
BCL6-POZ domain [4]
  1H-15N TROSY-HSQC NMR chemical shift perturbation; also relieves BCL6 repression: resulted in a subset of peaks shifting in a concentration dependent manner

## CO[C@H]1/C=C/O[C@@]2(C)Oc3c(C)c(O)c4c(O)c(c(/C=N/N5CCN(C6CCCC6)CC5)c(O)c4c3C2=O)NC(=O)/C(C)=C\C=C\[C@H](C)[C@H](O)[C@@H](C)[C@@H](O)[C@@H](C)[C@H](OC(C)=O)[C@@H]1C [rifapentine]
BCL6-POZ domain [3]
  1H-15N TROSY-HSQC NMR chemical shift perturbation: order of binding from weakest to strongest was: rifaximin, rifapentine, 3-formyl rifamycin, rifampicin, rifamycin SV and rifabutin
